Converted amounts (≈) assume the structure as drawn. The source made the active and inactive calls. No cut-off for these calls is given here.
Assays:
Candida albicans = assay: Antifungal activity against Candida albicans after 48 hrs by micro broth dilution method; type: functional
Klebsiella pneumoniae = assay: Antibacterial activity against Klebsiella pneumoniae ATCC 27736 after 24 hrs by micro broth dilution method; type: functional
Pseudomonas aeruginosa = assay: Antibacterial activity against Pseudomonas aeruginosa […] at 50 ug/ml after 24 hrs by micro broth dilution method; type: functional, organism-based
Candida parapsilosis = assay: Antifungal activity against Candida parapsilosis ATCC 22019 after 48 hrs by micro broth dilution method; type: functional
Staphylococcus aureus = assay: Antibacterial activity against Staphylococcus aureus ATCC 25923 after 24 hrs by micro broth dilution method; type: functional
[1] = tested on: Trichophyton mentagrophytes; assay: Antifungal activity against Trichophyton mentagrophytes after 96 hrs by micro broth dilution method; type: functional
Aspergillus fumigatus = assay: Antifungal activity against Aspergillus fumigatus after 72 hrs by micro broth dilution method; type: functional
Cryptococcus neoformans = assay: Antifungal activity against Cryptococcus neoformans after 72 hrs by micro broth dilution method; type: functional
Escherichia coli = assay: Antibacterial activity against Escherichia coli after 24 hrs by micro broth dilution method; type: functional

Compound | MIC50 (Candida albicans) [µM] | MIC50 (Klebsiella pneumoniae) [µM] | Activity (Pseudomonas aeruginosa) | MIC50 (Candida parapsilosis) [µM] | MIC50 (Staphylococcus aureus) [µM] | MIC50 [1] [µM] | MIC50 (Aspergillus fumigatus) [µM] | MIC50 (Cryptococcus neoformans) [µM] | MIC50 (Escherichia coli) [µM]
O=C1C(Cl)=C(NNc2ccccc2)C(=O)c2ccccc21 | 10.4 (≈ 3.12 µg/mL) | 83.8 (≈ 25 µg/mL) | inactive | 20.9 (≈ 6.26 µg/mL) | 83.8 (≈ 25 µg/mL) | 1.31 (≈ 0.391 µg/mL) | 41.9 (≈ 12.5 µg/mL) | 10.4 (≈ 3.12 µg/mL) | 83.8 (≈ 25 µg/mL)
O=C(O)CC(SC1=C(Cl)C(=O)c2ccccc2C1=O)C(=O)O (stereo not given) | > 147 | 4.58 (≈ 1.56 µg/mL) | inactive | 147 (≈ 50 µg/mL) | 147 (≈ 50 µg/mL) | 36.7 (≈ 12.5 µg/mL) | 147 (≈ 50 µg/mL) | 147 (≈ 50 µg/mL) | 36.7 (≈ 12.5 µg/mL)
Cc1sc2c(=O)c3ccccc3c(=O)c=2n(C)c1O | 22.9 (≈ 6.25 µg/mL) | 11.4 (≈ 3.12 µg/mL) | – | 45.7 (≈ 12.5 µg/mL) | 11.4 (≈ 3.12 µg/mL) | 5.71 (≈ 1.56 µg/mL) | 22.9 (≈ 6.25 µg/mL) | 11.4 (≈ 3.12 µg/mL) | 5.71 (≈ 1.56 µg/mL)
O=C1C(=O)c2ccccc2C(O)=C1Sc1ccccc1 | 177 (≈ 50 µg/mL) | 177 (≈ 50 µg/mL) | inactive | > 177 | 177 (≈ 50 µg/mL) | 177 (≈ 50 µg/mL) | > 177 | > 177 | 88.6 (≈ 25 µg/mL)
NCC[C@H](O)C(=O)N[C@@H]1C[C@H](N)[C@@H](O[C@H]2O[C@H](CN)[C@@H](O)[C@H](O)[C@H]2O)[C@H](O)[C@H]1O[C@H]1O[C@H](CO)[C@@H](O)[C@H](N)[C@H]1O [AMIKACIN] | – | 1.71 (≈ 1 µg/mL) | – | – | 27.3 (≈ 16 µg/mL) | – | – | – | 1.71 (≈ 1 µg/mL)
O=C1C(Cl)=C(N2CCOCC2)C(=O)c2ccccc21 [2-Chloro-3-morpholino-1,4-naphthoquinone] | 45 (≈ 12.5 µg/mL) | 22.5 (≈ 6.25 µg/mL) | inactive | 22.5 (≈ 6.25 µg/mL) | 180 (≈ 50 µg/mL) | 2.81 (≈ 0.78 µg/mL) | 90.1 (≈ 25 µg/mL) | 22.5 (≈ 6.25 µg/mL) | 45 (≈ 12.5 µg/mL)
O=C1C=C(N2CCCC2)C(=O)c2c(O)ccc(O)c21 | > 193 | 193 (≈ 50 µg/mL) | inactive | > 193 | 193 (≈ 50 µg/mL) | 96.4 (≈ 25 µg/mL) | > 193 | > 193 | 193 (≈ 50 µg/mL)
Cn1c(O)csc2c(=O)c3ccccc3c(=O)c1=2 | 3 (≈ 0.778 µg/mL) | 3 (≈ 0.778 µg/mL) | inactive | 6.02 (≈ 1.56 µg/mL) | 3 (≈ 0.778 µg/mL) | 3 (≈ 0.778 µg/mL) | 24.1 (≈ 6.25 µg/mL) | 24.1 (≈ 6.25 µg/mL) | 24.1 (≈ 6.25 µg/mL)
OC(Cn1cncn1)(Cn1cncn1)c1ccc(F)cc1F [FLUCONAZOLE] | 3.26 (≈ 0.998 µg/mL) | – | – | 3.26 (≈ 0.998 µg/mL) | – | 5.09 (≈ 1.56 µg/mL) | – | 1.63 (≈ 0.499 µg/mL) | –
C=CCNC1=C(Cl)C(=O)c2ccccc2C1=O | 50.5 (≈ 12.5 µg/mL) | 25.2 (≈ 6.25 µg/mL) | inactive | 50.5 (≈ 12.5 µg/mL) | 101 (≈ 25 µg/mL) | 3.15 (≈ 0.78 µg/mL) | 101 (≈ 25 µg/mL) | 50.5 (≈ 12.5 µg/mL) | 101 (≈ 25 µg/mL)
O=C1C(Cl)=C(N2CCCC2)C(=O)c2ccccc21 | 11.9 (≈ 3.11 µg/mL) | 95.4 (≈ 25 µg/mL) | inactive | 23.9 (≈ 6.24 µg/mL) | 95.4 (≈ 25 µg/mL) | 1.49 (≈ 0.39 µg/mL) | 95.4 (≈ 25 µg/mL) | 23.9 (≈ 6.24 µg/mL) | 47.7 (≈ 12.5 µg/mL)
CCOC(=O)CSC1=C(Cl)C(=O)c2ccccc2C1=O | > 161 | 161 (≈ 50 µg/mL) | – | > 161 | 40.2 (≈ 12.5 µg/mL) | > 161 | > 161 | 40.2 (≈ 12.5 µg/mL) | 40.2 (≈ 12.5 µg/mL)
O=C(O)CSC1=C(Cl)C(=O)c2ccccc2C1=O | 88.5 (≈ 25 µg/mL) | 22.1 (≈ 6.25 µg/mL) | inactive | 88.5 (≈ 25 µg/mL) | 44.2 (≈ 12.5 µg/mL) | 5.52 (≈ 1.56 µg/mL) | 177 (≈ 50 µg/mL) | 88.5 (≈ 25 µg/mL) | 44.2 (≈ 12.5 µg/mL)
Clc1ccc(COC(Cn2ccnc2)c2ccc(Cl)cc2Cl)c(Cl)c1 (stereo not given) [MICONAZOLE] | 60.1 (≈ 25 µg/mL) | – | – | – | – | < 1.87 | 30 (≈ 12.5 µg/mL) | 30 (≈ 12.5 µg/mL) | –
CN1CCN(C2=CC(=O)c3c(O)ccc(O)c3C2=O)CC1 | > 173 | 173 (≈ 50 µg/mL) | inactive | 173 (≈ 50 µg/mL) | 173 (≈ 50 µg/mL) | > 173 | 173 (≈ 50 µg/mL) | > 73.4 | 173 (≈ 50 µg/mL)
CN1CCN(C2=C(Cl)C(=O)c3ccccc3C2=O)CC1 | 5.38 (≈ 1.56 µg/mL) | 21.5 (≈ 6.26 µg/mL) | inactive | 21.5 (≈ 6.26 µg/mL) | 43.1 (≈ 12.5 µg/mL) | 1.34 (≈ 0.39 µg/mL) | 43.1 (≈ 12.5 µg/mL) | 21.5 (≈ 6.26 µg/mL) | 43.1 (≈ 12.5 µg/mL)
NYSTATIN | 8.42 | – | – | – | – | – | – | 3.78 | –
NC[C@H]1O[C@H](O[C@H]2[C@H](O)[C@@H](O[C@H]3O[C@H](CO)[C@@H](O)[C@H](N)[C@H]3O)[C@H](N)C[C@@H]2N)[C@H](N)C[C@@H]1O [TOBRAMYCIN] | – | 2.14 (≈ 1 µg/mL) | – | – | 0.53 (≈ 0.248 µg/mL) | – | – | – | 1.07 (≈ 0.5 µg/mL)
C[C@@H]1[C@H](O)[C@@H](C)/C=C/C=C/C=C/C=C/C=C/C=C/C=C/[C@H](O[C@@H]2O[C@H](C)[C@@H](O)[C@H](N)[C@@H]2O)C[C@@H]2O[C@](O)(C[C@@H](O)C[C@@H](O)[C@H](O)CC[C@@H](O)C[C@@H](O)CC(=O)O[C@H]1C)C[C@H](O)[C@H]2C(=O)O [AMPHOTERICIN B] | 0.42 (≈ 0.388 µg/mL) | – | – | – | – | 1.69 (≈ 1.56 µg/mL) | – | 0.84 (≈ 0.776 µg/mL) | –
O=C1C(Cl)=C(N2CCCCC2)C(=O)c2ccccc21 | 5.66 (≈ 1.56 µg/mL) | 90.7 (≈ 25 µg/mL) | inactive | 11.3 (≈ 3.12 µg/mL) | 90.7 (≈ 25 µg/mL) | 1.42 (≈ 0.392 µg/mL) | 90.7 (≈ 25 µg/mL) | 22.7 (≈ 6.26 µg/mL) | 43.4 (≈ 12 µg/mL)
CCOC(=O)C(C)SC1=C(Cl)C(=O)c2ccccc2C1=O (stereo not given) | > 154 | 154 (≈ 50 µg/mL) | – | > 154 | 38.5 (≈ 12.5 µg/mL) | > 154 | > 154 | 38.5 (≈ 12.5 µg/mL) | 38.5 (≈ 12.5 µg/mL)
COC(=O)CSC1=C(Cl)C(=O)c2ccccc2C1=O | > 168 | 42.1 (≈ 12.5 µg/mL) | inactive | 168 (≈ 50 µg/mL) | 42.1 (≈ 12.5 µg/mL) | 42.1 (≈ 12.5 µg/mL) | 168 (≈ 50 µg/mL) | 168 (≈ 50 µg/mL) | 42.1 (≈ 12.5 µg/mL)
GENTAMICIN | – | 0.82 | – | – | 1.63 | – | – | – | 0.38
O=C1C(Cl)=C(SCCS)C(=O)c2ccccc21 | 11 (≈ 3.12 µg/mL) | 21.9 (≈ 6.25 µg/mL) | inactive | 43.9 (≈ 12.5 µg/mL) | 43.9 (≈ 12.5 µg/mL) | 1.37 (≈ 0.39 µg/mL) | 87.8 (≈ 25 µg/mL) | 11 (≈ 3.12 µg/mL) | 87.8 (≈ 25 µg/mL)
NC[C@H]1O[C@H](O[C@H]2[C@H](O)[C@@H](O[C@H]3O[C@H](CO)[C@@H](O)[C@H](N)[C@H]3O)[C@H](N)C[C@@H]2N)[C@H](O)[C@@H](O)[C@@H]1O [KANAMYCIN] | – | 66 (≈ 32 µg/mL) | – | – | 4.13 (≈ 2 µg/mL) | – | – | – | 33 (≈ 16 µg/mL)

— ChEMBL document CHEMBL1165880, “'On water' assisted synthesis and biological evaluation of nitrogen and sulfur containing hetero-1,4-naphthoquinones as potent antifungal and antibacterial agents” (2010)
